Reference: patent publication US20190192060A1, “DEVICE AND METHOD FOR BLOOD VOLUME MEASUREMENT” (Oregon Health & Science University, priority 2017, published 2019)

Columns and labels:
[1] = cited from earlier work
[2] = cited from earlier work; remark: listed apart in the source
[3] = in vivo indicator dilution and elimination measured with intravenous optical fiber probe; details: healthy adult rhesus macaques, intravenous injection, reflectance in cephalic vein

time until blood volume indicator values returned to baseline (non-detectable) [3]: approximately 10 minutes
SMILES: CC1(C)C(/C=C/C=C/C=C/C=C2\N(CCCCS(=O)(=O)O)c3ccc4ccccc4c3C2(C)C)=[N+](CCCCS(=O)(=O)[O-])c2ccc3ccccc3c21 [ICG, indocyanine green]
time to elimination by the liver ([1]; after mixing in the circulating compartment): ≤ 15 min
route of excretion ([1]; in vivo): excreted unchanged in the bile
placental transfer ([2]; in vivo): does not cross the placenta
harm to the fetus ([2]; used in many pregnant women): without any reports of harm to the fetus
